Laboratory results published in the NIST ThermoML archive (doi:10.1016/j.jct.2018.05.023).
Numbers after ± are expanded uncertainties.

Assay: Molar enthalpy of transition or fusion
Settings: Crystal; DSC

Row | Molar enthalpy of transition or fusion [kcal/mol] | Compound
1 | 1.39 ± 0.12 | [Ga] [gallium]

Assay: not given
Settings: Crystal; DTA

Row | Normal melting temperature [°C] | Compound
2 | 7 ± 1.1 | C1CCCCC1 [cyclohexane]
3 | -9.4 ± 1.1 | CCCCCCCCCCCC [dodecane]
4 | 35.0 ± 1.1 | CCCCCCCCCCCCCCCCCCCC [eicosane]
5 | 30.2 ± 1.1 | [Ga] [gallium]
6 | 18 ± 1.1 | CCCCCCCCCCCCCCCC [hexadecane]
7 | 5.8 ± 1.1 | CCCCCCCCCCCCCC [tetradecane]
8 | 0.4 ± 1.1 | O [water]
